Experimental data published in article PMC8929329, “The pharmaceutical excipient PEG400 affect the absorption of baicalein in Caco‐2 monolayer model by interacting with UDP‐glucuronosyltransferases and efflux transport proteins” (Pharmacology Research & Perspectives, 2022).
Read-outs that look alike come from different tables or passages of the source.

Tests used:
Stability study in HBSS = assay type: physicochemical; conditions: 37°C, 2 h
Description: The test was carried out by measuring the content of B, BG, and B6G before and after keeping in the HBSS solution at 37°C for 2 h. The time interval was selected according to the permeation experiment. The differences between the contents of the three samples before or after the incubation were calculated and expressed as the percentage of B, BG, and B6G remaining.

UGT1A8 = experiment: Enzyme activity assay, intestinal microsome incubation: baicalein glucuronidation to B6G; assay type: in vitro ADME, human
Description: (§1) In this experiment, the effect of PEG400 on the enzyme activities of UGT1A8 and UGT1A9 was evaluated by in vitro microsome incubation. The activity of UGT1A8 and UGT1A9 was determined by detecting the production of BG and B6G with B as substrate.
(§2) The incubation system contained 10 µl of 50 mM Tris‐HCl (pH 7.4) buffer, 10 µl of 5 mM MgCl2 solution, 10 µl of 0.2 mg/ml alamethicin (Aladdin Biochemical Technology), and 20 µl of intestinal microsomes (Xenotech). The incubation system was pre‐incubated on ice for 15 min prior to experiment. Then, added 20 µl baicalein (dissolved in 50 mM Tris‐HCl) and PEG400 (20 µl) or 50 mM Tris‐HCl (20 µl) to the incubation system. The reaction was initiated by adding 5 mM UDPGA (10 µl) and incubated at 37°C for 15 min. The whole reaction was operated in a 1.5 ml centrifuge tube. Finally, the reaction was terminated by adding cold acetonitrile (100 µl) containing the genistein (IS). All solutions were thoroughly mixed for 3 min, then the mixture was centrifuged at 4°C at 16,000g for 15 min to precipitate the proteins completely. The supernatant was transferred and 10 µl was injected into the UPLC‐MS/MS system.
(§3) Kinetics parameters were obtained by fitting the data with Michaelis‐Menten equation (Equation 5) using […] GraphPad Prism® 9. (5) v=Vmax×s/Km+s where v (nmol/min/mg) is the velocity of metabolite formation, V max (nmol/min/mg) is the maximum velocity, K m (µM) is the Michaelis constant defined as the substrate concentration at half of V max, [S] (µM) is the substrate concentration

[1] = Permeation experiments on Caco-2 cell monolayer (two-way transport); assay type: in vitro ADME, human; conditions: human, read-out: corrected apparent permeability (Pcorrected); for Papp at 120 min, 5 μM: baicalein 5 μM; for Papp at 120 min, 15 μM: baicalein 15 μM
Description: (§4) Cell culture was performed as previously described.[15] For transport experiments, Caco-2 cells from passage number 20-30 were seeded at a density of 2 × 10^5 cells per well on transwell plate (a solid insert for cell culture contains porous permeable polycarbonate membrane) with polycarbonate membranes using a blood-counting chamber (QIU JING®). A 0.5 ml of culture medium with cells was added to the apical side (AP) and 1.5 ml of blank culture medium was added to the basolateral side (BL). During the incubation period, the medium on the AP and BL sides were changed every 2 days in the first week, and every day after a week until the 21st day. The permeation of samples was assessed in both directions at different concentrations. This experiment assessed the influence of different concentrations (%, v/v) of PEG400 on the permeation process of B, BG, and […]. […] Caco-2 cell monolayers with qualified monolayer membrane integrity were used for drug permeability experiments. Aspirated and discarded the original culture medium in the transwell plate, added pre-warmed (37°C) HBSS to wash 3 times, put it in the incubator for the last time and incubated for 30 min. […] For the AP-BL permeability (absorptive transport study), add 0.5 ml of samples (dissolved in HBSS) to the apical side (AP) as a supply chamber, and add 1.5 ml of pre-warmed HBSS to the basolateral side (BL) as a receiving chamber. Alternatively, in the permeation direction of BL-AP compartment (secretive transport study), add 1.5 ml of samples (dissolved in HBSS) to the BL side as a supply chamber, and add 0.5 ml of pre-warmed HBSS to the AP side as a receiving chamber. After the above steps, put the transwell plate on the thermostatic oscillator (Changzhou Wanhe Instrument Manufacturing Co., Ltd.) at 60 r/min. And sample 100 μl from the receiving pool or 10 μl from the supply chamber at 30, 60, 90, and 120 min depending on the experiment, and make up the same volume of blank pre-warmed HBSS. The sample taken from the transwell plate was precipitated with the 100 μl of methanol to precipitate the protein. After centrifugation at 16 000g for 15 min at 4°C, 70 μl of the supernatant was taken. And the content was determined by UPLC-MS/MS method to calculate the apparent permeability coefficient (P app) and efflux ratio (ER). The P app and ER of Caco-2 monolayers was measured and calculated as Equations ((2), (3), (4)): (2) Papp=dQ/dt/AC0 Where ΔQ/Δt (ng/ml·s) is the rate of permeability (ng/ml·s for B, BG, […]); A is for the membrane area (1.12 cm^2); C 0 (ng/ml/for B, BG, […]) is the initial concentration of the sample in the supply chamber. The apparent permeability might need to be corrected because of the effect of the marked amount of baicalein glucuronide.[17] Thus, the corrected permeability was calculated from the total rate of drug transport and the glucuronide excretion rate of bidirectional side divided by the membrane area (A) of the monolayer and the initial concentration of baicalein at the loading side (C 0): (3) Pcorrected=dQ/dt+Aex+Bex/AC0 (4) […] - BL Where P appBL-AP is the apparent permeability coefficient when the sample is added on the basolateral side; […]-BL is the apparent permeability coefficient when the sample is added on the apical side.

Caco-2 cell monolayer = experiment: as above; assay type: in vitro ADME, human
Description: as §4

UGT1A9 = experiment: Enzyme activity assay, intestinal microsome incubation: baicalein glucuronidation to BG; assay type: in vitro ADME, human; conditions: BG formation (UGT1A9)
Description: as §1, §2, §3

[2] = B6G formation (UGT1A8), 0.25% PEG400
[3] = B6G formation (UGT1A8), 0.5% PEG400
[4] = B6G formation (UGT1A8), 1% PEG400
[5] = B6G formation (UGT1A8), Control

## O=c1cc(-c2ccccc2)oc2cc(O)c(O)c(O)c12 [B, baicalein]
Stability study in HBSS; 150 ng ml^−1
  Stability (percentage remaining): 98.11 ± 3.85%
Stability study in HBSS; 300 ng ml^−1
  Stability (percentage remaining): 99.70 ± 5.23%
Stability study in HBSS; 600 ng ml^−1
  Stability (percentage remaining): 98.43 ± 7.23%
UGT1A8; [2]
  K m: 28.44 ± 8.34 µM
  V max: 4.54 ± 0.40 nmol/min/mg protein
UGT1A8; B6G formation (UGT1A8), 0.25% PEG400, listed as baicalein
  K m: 28.44 ± 8.34 µM
UGT1A8; [3]
  K m: 38.86 ± 3.76 µM
  V max: 6.68 ± 0.29 nmol/min/mg protein
UGT1A8; [4]
  K m: 194.73 ± 48.82 µM
  V max: 24.78 ± 4.67 nmol/min/mg protein
UGT1A8; B6G formation (UGT1A8), 1% PEG400, listed as baicalein
  K m: 194.73 ± 48.82 µM
UGT1A8; [5]
  K m: 43.33 ± 2.63 µM
  V max: 4.64 ± 0.11 nmol/min/mg protein
UGT1A8; UGT1A8, 0.25%PEG400
  V max: 4.54 ± 0.4 nmol/min/mg
UGT1A8; UGT1A8, 0.5% PEG400
  V max: 6.68 ± 0.29 nmol/min/mg
UGT1A8; UGT1A8, 1% PEG400
  V max: 24.8 ± 4.67 nmol/min/mg
UGT1A8; UGT1A8, no PEG400
  V max: 4.64 ± 0.11 nmol/min/mg
[1]; Caco-2, 10 μM B loaded on AP side, 0.25% 1% PEG400 group
  Papp at 120 min, 10 μM: 99.7 ×10⁻⁶ cm/s
[1]; Caco-2, 10 μM B loaded on AP side, 0.25% PEG400 group
  Papp at 120 min, 10 μM: 100 ×10⁻⁶ cm/s
[1]; Caco-2, 10 μM B loaded on AP side, 0.5% PEG400 group
  Papp at 120 min, 10 μM: 94.7 ×10⁻⁶ cm/s
[1]; Caco-2, AP-BL
  Papp at 120 min, 5 μM: 73.2 ×10⁻⁶ cm/s
  Papp at 120 min, 15 μM: 53.5 ×10⁻⁶ cm/s
[1]; Caco-2, AP-BL, baicalein 10 μM
  Papp at 120 min, 10 μM: 78.4 ×10⁻⁶ cm/s
[1]; Caco-2, BL-AP, 10 μM B, 0.25% PEG400 group
  Papp at 120 min, 10 μM: 186 ×10⁻⁶ cm/s
[1]; Caco-2, BL-AP, 10 μM B, 0.5% PEG400 group
  Papp at 120 min, 10 μM: 159 ×10⁻⁶ cm/s
[1]; Caco-2, BL-AP, 10 μM B, 1% PEG400 group
  Papp at 120 min, 10 μM: 135 ×10⁻⁶ cm/s
[1]; Caco-2, BL-AP
  Papp at 120 min, 5 μM: 120 ×10⁻⁶ cm/s
  Papp at 120 min, 15 μM: 105 ×10⁻⁶ cm/s
[1]; Caco-2, BL-AP, baicalein 10 μM
  Papp at 120 min, 10 μM: 163 ×10⁻⁶ cm/s
Caco-2 cell monolayer; AL-BL experiment, baicalein 10 μM loaded with 0.5% (v/v) PEG400
  permeation within 2 h compared with the control group: significantly decreased
Caco-2 cell monolayer; BL-AP experiment, baicalein 10 μM loaded with 0.5% (v/v) PEG
  penetration within 2 h compared with the control group: decreased significantly
UGT1A9; 0.25% PEG400
  K m: 14.34 ± 1.92 µM
UGT1A9; 0.25% PEG400, listed as baicalein
  K m: 14.34 ± 1.92 µM
UGT1A9; 0.5% PEG400
  K m: 18.26 ± 3.61 µM
UGT1A9; 1% PEG400
  K m: 28.30 ± 3.33 µM
UGT1A9; 1% PEG400, listed as baicalein
  K m: 28.30 ± 3.33 µM
UGT1A9; Control
  K m: 22.05 ± 3.74 µM
